Measurements reported in PMC3305890, “Synthesis and pharmacological characterization of potent, selective, and orally bioavailable isoindoline class dipeptidyl peptidase IV inhibitors” (Organic and Medicinal Chemistry Letters, 2011).

Experiments:
[1] = Metabolic stability in human liver microsomes; format: in vitro ADME; conditions: read-out: CL'int Human (converted)
Experimental: (§1) The incubation mixture containing 0.25 mg of rat or human liver microsomes was preincubated with an NADPH-generating system for 5 min at 37°C. The reaction was started by the addition of 5 μL of a DMSO solution containing the test compound (5 μM). At t = 0 and at two additional time points between 0 and 30 min, aliquots (100 μL) were removed and added to termination mixtures (CH3CN). Proteins were sedimented by centrifugation and an aliquot of the supernatant was analyzed by LC/MS/MS.
(§2) In determinations of the in vitrot1/2, the analyte/ISTD peak area ratio was converted to percentage of drug remaining by assigning a value of 100% to the peak area ratio at t = 0. The slope of the regression line fitted to the log (percentage remaining) versus incubation time relationship (-k) was used in the conversion of raw data to the in vitrot1/2 value. In vitro CLint was calculated using the following formula.
(§3) CLint=0.693/Invitro t1/2×mL incubation/mg microsomes×45 mg microsomes/mg liver×[…] (b.w.)

Human DPP-9 = Human DPP-9 (Homo sapiens, UniProt Q86TI2); assay: In vitro assay for inhibition of DPP-9
Experimental: (§7) Thus, isoindolines were synthesized as shown in Figure 1 and evaluated in vitro for their ability to inhibit human recombinant DPP-IV and were also screened for their selectivity over DPP-8/9 by a fluorescence assay using glycyl-proline 7-amino-4-methylcoumarin (H-Gly-Pro-AMC).
(§8) Human DPP-8 and DPP-9 were expressed in baculovirus-infected Sf9 insect cells and purified using His-tagged protein purification resins. Inhibition of DPP-8 and -9 activities was determined as described above. 10 μL of appropriately diluted aqueous solutions of the test compounds was added to 96-well microtiter plates, followed by the addition of 50 μL of 1.0 mM H-Gly-Pro-AMC in buffer solution (50 mM HEPES, 0.1 mg/mL BSA, pH 8.0). The reaction was initiated by the addition of 40 μL of the enzyme solution diluted in the assay buffer.

CYP2B = CYP2B enzyme induction in rat hepatocytes (7-pentoxyresorufin O-dealkylation); format: in vitro ADME; conditions: rat hepatocytes, 1, 10, 50 μM, 2 days
Experimental: (§4) Enzyme induction was evaluated as follows: Hepatocytes isolated from male SD rats were maintained in culture for 1 day before treatment with the test compound or P-450 inducers. The cells were treated with the test compound (1, 10, 50 μM), β-naphthoflavone (10 μM, CYP1A inducer), phenobarbital (50 μM, CYP2B inducer), dexamethasone (10 μM, CYP3A inducer), or vehicle (0.1% DMSO final volume; used as negative control) for 2 days.
(§5) Induction of CYP1A, CYP2B, and CYP3A enzymes was determined based on measurements of 7-ethoxyresorufin O-dealkylation, 7-pentoxyresorufin O-dealkylation, and testosterone 6β-hydroxylation, respectively. Assays were started by the addition of Krebs-Henseleit buffer containing 8 μM 7-ethoxyresorufin, 10 μM 7-pentoxyresorufin, or 250 μM testosterone at a volume of 100 μL per well. After incubation at 37°C for 30 min, aliquots were removed and analyzed by fluorometry (an excitation wavelength of 538 nm and an emission wavelength of 590 nm) or LC/MS/MS to determine the quantities of metabolites formed. Any test compound causing a dose-dependent change equal to or greater than 10% of the positive control (see formula below) was considered an enzyme inducer.
(§6) % positive control=(activity of test - compound treated cells - activity of negative control)/(activity of positive control - activity of negative control)×100

CYP1A = CYP1A enzyme induction in rat hepatocytes (7-ethoxyresorufin O-dealkylation); format: in vitro ADME; conditions: rat hepatocytes, 1, 10, 50 μM, 2 days
Experimental: as §4, §5, §6

[2] = Metabolic stability in rat liver microsomes; format: in vitro ADME; conditions: 5 μM
Experimental: as §1, §2, §3

CYP3A = CYP3A enzyme induction in rat hepatocytes (testosterone 6β-hydroxylation); format: in vitro ADME; conditions: rat hepatocytes, 1, 10, 50 μM, 2 days
Experimental: as §4, §5, §6

Human recombinant DPP-IV = Human recombinant DPP-IV (Homo sapiens, UniProt P27487); assay: In vitro assay for DPP-IV inhibition (H-Gly-Pro-AMC fluorescence)
Experimental: Inhibition of DPP-IV activity was determined by measuring the rate of hydrolysis of a surrogate substrate, H-Gly-Pro-7-amino-4-methylcoumarin (H-Gly-Pro-AMC). Human recombinant DPP-IV was purchased from R&D Systems, Minneapolis, MN. 10 μL of appropriately diluted solutions of the test compounds in water was added to 96-well microtiter plates, followed by the addition of 40 μL of DPP-IV diluted in assay buffer (25 mM HEPES, 140 mM NaC1, 0.1 mg/mL BSA, pH 7.8). After a 30-min preincubation at room temperature, the reaction was initiated by the addition of 50 μL of the assay buffer containing 0.2 mM H-Gly-Pro-AMC.

Human DPP-8 = Human DPP-8 (Homo sapiens, UniProt Q6V1X1); assay: In vitro assay for inhibition of DPP-8
Human DPP-8, sequence (Q6V1X1 whole entry): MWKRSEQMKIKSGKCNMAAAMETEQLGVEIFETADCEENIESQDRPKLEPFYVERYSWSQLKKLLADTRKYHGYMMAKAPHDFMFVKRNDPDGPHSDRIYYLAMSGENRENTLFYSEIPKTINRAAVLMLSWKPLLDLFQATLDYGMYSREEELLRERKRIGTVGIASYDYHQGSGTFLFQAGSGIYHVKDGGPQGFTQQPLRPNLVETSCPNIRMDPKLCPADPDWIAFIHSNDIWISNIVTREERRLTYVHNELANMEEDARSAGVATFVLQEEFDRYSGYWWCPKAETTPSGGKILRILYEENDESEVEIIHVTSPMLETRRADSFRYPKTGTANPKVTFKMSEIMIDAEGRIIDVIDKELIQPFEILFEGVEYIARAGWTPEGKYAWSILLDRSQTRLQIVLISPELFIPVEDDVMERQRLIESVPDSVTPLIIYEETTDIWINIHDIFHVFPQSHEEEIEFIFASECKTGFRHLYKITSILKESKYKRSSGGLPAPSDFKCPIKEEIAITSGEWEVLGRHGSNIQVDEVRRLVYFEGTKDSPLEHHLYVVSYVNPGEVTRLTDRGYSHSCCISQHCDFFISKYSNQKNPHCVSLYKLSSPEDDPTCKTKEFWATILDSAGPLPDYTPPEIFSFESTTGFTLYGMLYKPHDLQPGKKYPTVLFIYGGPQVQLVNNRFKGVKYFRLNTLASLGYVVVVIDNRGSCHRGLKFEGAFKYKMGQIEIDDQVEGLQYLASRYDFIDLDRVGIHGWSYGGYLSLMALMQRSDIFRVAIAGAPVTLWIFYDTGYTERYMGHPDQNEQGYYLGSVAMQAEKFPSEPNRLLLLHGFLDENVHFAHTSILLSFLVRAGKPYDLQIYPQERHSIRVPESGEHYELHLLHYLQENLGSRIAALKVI
Experimental: as §7, §8

Human DPP-9, sequence (Q86TI2 whole entry): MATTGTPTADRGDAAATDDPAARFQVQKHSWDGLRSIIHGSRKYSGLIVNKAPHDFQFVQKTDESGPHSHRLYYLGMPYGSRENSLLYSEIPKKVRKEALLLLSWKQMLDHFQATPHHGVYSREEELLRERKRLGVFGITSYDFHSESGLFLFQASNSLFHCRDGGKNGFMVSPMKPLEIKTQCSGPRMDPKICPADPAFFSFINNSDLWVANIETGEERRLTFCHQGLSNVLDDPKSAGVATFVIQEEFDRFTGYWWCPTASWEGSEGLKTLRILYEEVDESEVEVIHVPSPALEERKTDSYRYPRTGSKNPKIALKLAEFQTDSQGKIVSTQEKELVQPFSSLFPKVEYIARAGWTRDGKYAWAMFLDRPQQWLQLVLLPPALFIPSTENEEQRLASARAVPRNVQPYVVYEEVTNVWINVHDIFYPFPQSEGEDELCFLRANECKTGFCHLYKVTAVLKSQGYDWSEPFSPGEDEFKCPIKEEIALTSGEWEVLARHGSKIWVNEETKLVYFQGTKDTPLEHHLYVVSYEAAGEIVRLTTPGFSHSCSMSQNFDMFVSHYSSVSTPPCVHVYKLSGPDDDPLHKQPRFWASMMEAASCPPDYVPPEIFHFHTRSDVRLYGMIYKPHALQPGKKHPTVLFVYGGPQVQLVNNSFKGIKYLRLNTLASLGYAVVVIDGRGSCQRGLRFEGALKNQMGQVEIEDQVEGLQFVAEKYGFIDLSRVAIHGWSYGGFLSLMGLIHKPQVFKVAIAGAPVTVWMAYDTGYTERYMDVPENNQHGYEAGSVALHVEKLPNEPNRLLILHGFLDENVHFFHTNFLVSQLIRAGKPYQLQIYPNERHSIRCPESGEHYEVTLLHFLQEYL
Human recombinant DPP-IV, sequence (P27487 whole entry): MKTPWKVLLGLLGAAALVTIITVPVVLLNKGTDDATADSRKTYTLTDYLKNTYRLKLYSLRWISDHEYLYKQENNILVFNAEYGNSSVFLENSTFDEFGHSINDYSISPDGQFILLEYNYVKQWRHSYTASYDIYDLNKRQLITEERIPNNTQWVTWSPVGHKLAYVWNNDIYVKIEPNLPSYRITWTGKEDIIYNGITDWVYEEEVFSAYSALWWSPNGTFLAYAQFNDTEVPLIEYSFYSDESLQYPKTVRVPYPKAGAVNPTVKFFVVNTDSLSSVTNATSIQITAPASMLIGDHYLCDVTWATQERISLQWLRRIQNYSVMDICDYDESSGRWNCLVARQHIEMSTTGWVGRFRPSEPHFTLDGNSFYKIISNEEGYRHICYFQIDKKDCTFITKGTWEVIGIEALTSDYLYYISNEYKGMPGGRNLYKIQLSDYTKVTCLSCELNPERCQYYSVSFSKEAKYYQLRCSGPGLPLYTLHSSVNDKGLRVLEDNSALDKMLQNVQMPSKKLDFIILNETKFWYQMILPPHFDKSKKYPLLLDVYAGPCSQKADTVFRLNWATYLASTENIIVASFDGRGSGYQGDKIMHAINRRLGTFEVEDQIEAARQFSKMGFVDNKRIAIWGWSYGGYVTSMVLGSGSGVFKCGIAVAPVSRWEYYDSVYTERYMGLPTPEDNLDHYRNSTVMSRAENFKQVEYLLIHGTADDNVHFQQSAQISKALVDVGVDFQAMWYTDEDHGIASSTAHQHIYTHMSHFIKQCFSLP

With `CC(C)(CC(=O)N1Cc2ccccc2C1)NCC(=O)N1CCC[C@H]1C#N` [Compound 4a, (S)-1-(2-(4-(Isoindolin-2-yl)-2-methyl-4-oxobutan-2-ylamino)acetyl)pyrrolidine-2-carbonitrile] the CLint scaled at 5 μM [1] was 3.33 mL/min/kg, the IC50 (Human DPP-9) was greater than 100 µM and the “Enzyme induction (rat) CYP2B” value (CYP2B) was “+ (Any test compound causing a dose-dependent change equal to or greater than 10% of the positive control (see formula below) was considered an enzyme inducer)”. The “Enzyme induction (rat) CYP1A” value (CYP1A) was “+ (Any test compound causing a dose-dependent change equal to or greater than 10% of the positive control (see formula below) was considered an enzyme inducer)”, the “CL'int Rat” value [2] was 21.7 mL/min/kg and the “Enzyme induction (rat) CYP3A” value (CYP3A) was “+ (Any test compound causing a dose-dependent change equal to or greater than 10% of the positive control (see formula below) was considered an enzyme inducer)”.
In the case of `CC(C)(CC(=O)N1Cc2ccc(F)cc2C1)NCC(=O)N1CCC[C@H]1C#N` [Compound 4c, (S)-1-(2-(4-(5-Fluoroisoindolin-2-yl)-2-methyl-4-oxobutan-2-ylamino)acetyl)pyrrolidine-2-carbonitrile], the CLint scaled at 5 μM [1] is reported as 80 mL/min/kg, the IC50 (Human DPP-9) is reported as greater than 100 µM and the “Enzyme induction (rat) CYP2B” value (CYP2B) is reported as “+ (Any test compound causing a dose-dependent change equal to or greater than 10% of the positive control (see formula below) was considered an enzyme inducer)”. The IC50 (Human recombinant DPP-IV) was 0.0019 µM, the “CL'int Rat” value [2] was 43.3 mL/min/kg and the IC50 (Human DPP-8) was greater than 100 µM.
For `CC(C)(CC(=O)N1Cc2ccc(Br)cc2C1)NCC(=O)N1CCC[C@H]1C#N` [Compound 4d, (S)-1-(2-(4-(5-Bromoisoindolin-2-yl)-2-methyl-4-oxobutan-2-ylamino)acetyl)pyrrolidine-2-carbonitrile], the IC50 (Human DPP-9) was greater than 100 µM, the “Enzyme induction (rat) CYP2B” value (CYP2B) was “+ (Any test compound causing a dose-dependent change equal to or greater than 10% of the positive control (see formula below) was considered an enzyme inducer)” and the IC50 (Human recombinant DPP-IV) was 0.003 µM. The IC50 (Human DPP-8) was 36 µM.
For `CC(C)(CC(=O)N1Cc2ccc(Cl)cc2C1)NCC(=O)N1CCC[C@H]1C#N` [Compound 4e, (S)-1-(2-(4-(5-Chloroisoindolin-2-yl)-2-methyl-4-oxobutan-2-ylamino)acetyl)pyrrolidine-2-carbonitrile], the IC50 (Human DPP-9) was greater than 100 µM, the “Enzyme induction (rat) CYP2B” value (CYP2B) was “+ (Any test compound causing a dose-dependent change equal to or greater than 10% of the positive control (see formula below) was considered an enzyme inducer)” and the IC50 (Human recombinant DPP-IV) was 0.0048 µM. It also gave an IC50 (Human DPP-8) of 44 µM.
With `CC(C)(CC(=O)N1Cc2ccc(C(F)(F)F)cc2C1)NCC(=O)N1CCC[C@H]1C#N` [Compound 4f, (S)-1-(2-(2-Methyl-4-oxo-4-(5-(trifluoromethyl)isoindolin-2-yl)butan-2-ylamino)acetyl)pyrrolidine-2-carbonitrile] the IC50 (Human DPP-9) was greater than 100 µM, the “Enzyme induction (rat) CYP2B” value (CYP2B) was “+ (Any test compound causing a dose-dependent change equal to or greater than 10% of the positive control (see formula below) was considered an enzyme inducer)” and the IC50 (Human recombinant DPP-IV) was 0.0054 µM. For the same molecule, the “Enzyme induction (rat) CYP1A” value (CYP1A) was “+ (Any test compound causing a dose-dependent change equal to or greater than 10% of the positive control (see formula below) was considered an enzyme inducer)” and the IC50 (Human DPP-8) was greater than 100 µM.
For `CC(C)(CC(=O)N1Cc2cccc(F)c2C1)NCC(=O)N1CCC[C@H]1C#N` [Compound 4g, (S)-1-(2-(4-(4-Fluoroisoindolin-2-yl)-2-methyl-4-oxobutan-2-ylamino)acetyl)pyrrolidine-2-carbonitrile], the IC50 (Human DPP-9) was greater than 100 µM, the “Enzyme induction (rat) CYP2B” value (CYP2B) was “+ (Any test compound causing a dose-dependent change equal to or greater than 10% of the positive control (see formula below) was considered an enzyme inducer)” and the IC50 (Human recombinant DPP-IV) was 0.0026 µM. The IC50 (Human DPP-8) was greater than 100 µM.
For `Cc1cccc2c1CN(C(=O)CC(C)(C)NCC(=O)N1CCC[C@H]1C#N)C2` [Compound 4h, (S)-1-(2-(2-Methyl-4-(4-methylisoindolin-2-yl)-4-oxobutan-2-ylamino)acetyl)pyrrolidine-2-carbonitrile], the IC50 (Human DPP-9) was greater than 100 µM, the “Enzyme induction (rat) CYP2B” value (CYP2B) was “+ (Any test compound causing a dose-dependent change equal to or greater than 10% of the positive control (see formula below) was considered an enzyme inducer)” and the IC50 (Human recombinant DPP-IV) was 0.004 µM. The IC50 (Human DPP-8) was greater than 100 µM.
With `CC(C)(CC(=O)N1Cc2c(Cl)ccc(Cl)c2C1)NCC(=O)N1CCC[C@H]1C#N` [Compound 4i, (S)-1-(2-(4-(4,7-Dichloroisoindolin-2-yl)-2-methyl-4-oxobutan-2-ylamino)acetyl)pyrrolidine-2-carbonitrile] the IC50 (Human DPP-9) was greater than 100 µM, the IC50 (Human recombinant DPP-IV) was 0.0026 µM and the “Enzyme induction (rat) CYP1A” value (CYP1A) was “+ (Any test compound causing a dose-dependent change equal to or greater than 10% of the positive control (see formula below) was considered an enzyme inducer)”. The IC50 (Human DPP-8) was greater than 100 µM.
In the case of `CC(C)(CC(=O)N1Cc2cc(Cl)c(Cl)cc2C1)NCC(=O)N1CCC[C@H]1C#N` [Compound 4j, (S)-1-(2-(4-(5,6-Dichloroisoindolin-2-yl)-2-methyl-4-oxobutan-2-ylamino)acetyl)pyrrolidine-2-carbonitrile], the IC50 (Human DPP-9) is reported as 74 µM, the “Enzyme induction (rat) CYP2B” value (CYP2B) is reported as “+ (Any test compound causing a dose-dependent change equal to or greater than 10% of the positive control (see formula below) was considered an enzyme inducer)” and the IC50 (Human recombinant DPP-IV) is reported as 0.022 µM. The “Enzyme induction (rat) CYP1A” value (CYP1A) was “+ (Any test compound causing a dose-dependent change equal to or greater than 10% of the positive control (see formula below) was considered an enzyme inducer)” and the IC50 (Human DPP-8) was greater than 100 µM.
For `COc1cc(C)cc2c1CN(C(=O)CC(C)(C)NCC(=O)N1CCC[C@H]1C#N)C2` [Compound 4k, (S)-1-(2-(4-(4-Methoxy-6-methylisoindolin-2-yl)-2-methyl-4-oxobutan-2-ylamino)acetyl)pyrrolidine-2-carbonitrile], the IC50 (Human DPP-9) was greater than 100 µM, the “Enzyme induction (rat) CYP2B” value (CYP2B) was “+ (Any test compound causing a dose-dependent change equal to or greater than 10% of the positive control (see formula below) was considered an enzyme inducer)” and the IC50 (Human recombinant DPP-IV) was 0.016 µM. For the same molecule, the IC50 (Human DPP-8) was greater than 100 µM.
